# Experimental data reported in PMC5502478 (ACS chemical biology, 2016).
# What was measured:
# Format in all cases: cell-based
# [1] = tested on: Candida albicans ATCC 10231; details: compared to 1 and 2
# [2] = tested on: Candida glabrata ATCC 2001; test: MIC, serial dilution antifungal assay
# Human erythrocytes = test: Hemolytic assay; details: tested concentrations
Substance,fold more potent (MIC) than wild-type fermentation products 1 and 2 against C. albicans [1] [fold],fold improvement of MIC against C. glabrata compared to 1 [2] [fold],hemolytic activity relative to pneumocandin B0 (overall) (Human erythrocytes)
pneumocandin I [Compound 5],8,32,comparable to pneumocandin B0
pneumocandin K [Compound 7],4,32,higher hemolytic activity than pneumocandin B0
